Results on 1 compound are retold here after ChEMBL document CHEMBL4270551, “Biological evaluation and structure-activity relationships of imidazole-based compounds as antiprotozoal agents” (Eur J Med Chem, 2018).

Active and inactive are the calls of the source. The rule behind the calls is not given here.

Data set [1] deals with Trypanosoma brucei rhodesiense. Briefly: Antiprotozoal activity against Trypanosoma brucei rhodesiense STIB900 trypomastigote after 72 hrs by Alamar Blue assay. Type of data set: functional, organism-based. As to conditions: STIB900, 72 h. In general terms: The colour change of resazurin is a common sign of viable cells or microbes.
Data set [2] has as its system Trypanosoma cruzi. Briefly: Antitrypanosomal activity against Trypanosoma cruzi Tulahuen strain C2C4 amastigote forms infected in rat L6 cells after 96 hrs by CPRG/Nonidet reagent based photometric method. Type of data set: functional, organism-based. Conditions: Tulahuen strain C2C4, L6, 96 h.
For another data set, the system named is Leishmania donovani. Description: Antileishmanial activity against Leishmania donovani MHOM/ET/67/L82 axenic amastigotes after 72 hrs by alamar blue staining based fluorescence assay. Format: functional, organism-based. As to conditions: MHOM/ET/67/L82, 72 h.
For the next data set, the system named is Plasmodium falciparum. Briefly: Antiprotozoal activity against erythrocytic stage of chloroquine and pyrimethamine resistant Plasmodium falciparum K1 assessed as reduction in [3H]-hypoxanthine incorporation preincubated for 24 hrs followed by [3H]-hypoxanthine addition measured after 24 hrs by scintillation counting method. Type of data set: functional, organism-based.

Data set [3] in a line: Cytotoxicity against rat L6 cells after 72 hrs by alamar blue staining based fluorescence assay. Type of data set: cell-based.
The nature of data set [4]: Selectivity index, ratio of CC50 for rat L6 cells to IC50 for Trypanosoma cruzi Tulahuen strain C2C4 amastigote forms infected in rat L6 cells. Type of data set: toxicity, cell-based. Conditions: read-out: Ratio CC50/IC50.
The nature of data set [5]: Selectivity index, ratio of CC50 for rat L6 cells to IC50 for Leishmania donovani MHOM/ET/67/L82 axenic amastigotes. Format: toxicity. As to conditions: read-out: Ratio CC50/IC50.
Data set [6] can be described thus: Selectivity index, ratio of CC50 for rat L6 cells to IC50 for erythrocytic stage of chloroquine and pyrimethamine resistant Plasmodium falciparum K1. Type of data set: toxicity. As to conditions: read-out: Ratio CC50/IC50.
The test system of data set [7] is Trypanosoma cruzi. Briefly: Potency index, ratio of benznidazole IC50 to test compound IC50 for Trypanosoma cruzi Tulahuen strain C2C4 amastigote forms infected in rat L6 cells. Type of data set: functional.
For data set [8], the system named is Mus musculus. Briefly: Toxicity in Balb/c mouse infected with Trypanosoma cruzi CL Brener assessed as hunched posture at 25 mg/kg, ip bid for 4 days measured during compound dosing. Format: organism-based. Conditions: in vivo, 96 h.
Data set [9] has as its system Mus musculus. Description: Toxicity in Balb/c mouse infected with Trypanosoma cruzi CL Brener assessed as reduction in mobility at 25 mg/kg, ip bid for 4 days measured during compound dosing. As to conditions: in vivo, 96 h. Format: organism-based.
Data set [10] relates to Mus musculus. Description: Toxicity in Balb/c mouse infected with Trypanosoma cruzi CL Brener assessed as weight loss at 25 mg/kg, ip bid for 4 days measured during compound dosing. Type of data set: organism-based. As to conditions: in vivo, 96 h.
The subject of data set [11] is Mus musculus. Briefly: Toxicity in Balb/c mouse infected with Trypanosoma cruzi CL Brener assessed as lack of grooming at 25 mg/kg, ip bid for 4 days measured during compound dosing. Format: organism-based. As to conditions: in vivo, 96 h.
The subject of data set [12] is Trypanosoma cruzi. Briefly: Antitrypanosomal activity against luciferase-expressing Trypanosoma cruzi CL Brener infected in Balb/c mouse assessed as reduction in parasitemia at 2.5 mg/kg, ip bid for 4 days by bioluminescence assay relative to control. Format: functional. Further details: scale not given: the % may be the effect or the level left.
Data set [13] has as its target Sterol 14-alpha demethylase (Trypanosoma cruzi (strain CL Brener)) (UniProt Q7Z1V1). Briefly: Binding affinity to Trypanosoma cruzi CYP51 at 5 to 10 uM by 96-well based UV-vis spectroscopic method.
For data set [14] the target is unchanged. Briefly: Binding affinity to Trypanosoma cruzi CYP51 by quartz cuvette based UV-vis spectroscopic method.

As a reminder, the IC50 is the concentration at which inhibition is half-maximal. One may read the CC50 as the concentration that lowers cell viability or growth by half.

Sterol 14-alpha demethylase (Trypanosoma cruzi (strain CL Brener)), sequence (Q7Z1V1 whole entry, looked up): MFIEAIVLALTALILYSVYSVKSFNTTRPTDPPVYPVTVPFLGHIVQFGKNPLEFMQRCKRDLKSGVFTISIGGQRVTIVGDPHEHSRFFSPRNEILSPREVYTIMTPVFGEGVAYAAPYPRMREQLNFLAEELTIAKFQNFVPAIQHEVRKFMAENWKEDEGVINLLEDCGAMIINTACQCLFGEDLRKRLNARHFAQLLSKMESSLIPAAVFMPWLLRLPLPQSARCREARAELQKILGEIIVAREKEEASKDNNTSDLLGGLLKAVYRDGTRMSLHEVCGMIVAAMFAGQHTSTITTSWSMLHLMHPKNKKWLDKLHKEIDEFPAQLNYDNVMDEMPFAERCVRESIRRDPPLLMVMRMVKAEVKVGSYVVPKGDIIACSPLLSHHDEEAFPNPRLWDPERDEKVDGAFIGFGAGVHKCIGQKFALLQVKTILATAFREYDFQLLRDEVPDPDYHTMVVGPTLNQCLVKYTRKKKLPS

On to `Cn1cc(-c2ccc(Cl)cc2)c(C(c2ccc(Cl)cc2Cl)n2ccnc2)c1` (stereo unspecified), for which the half-inhibitory concentration (IC50) in [1] is 36.5 µM; in the data set on Trypanosoma cruzi [2] it was 0.002 µM; in the data set on Leishmania donovani, 4.3 µM; with Plasmodium falciparum, 0.17 µM. In [3], the CC50 at 72 h stood at 5.23 µM. Moreover, the selectivity ratio in data set [4] stood at 2620; in data set [5], 1; in [6], 31. The “Ratio IC50” value in the data set with Trypanosoma cruzi [7] was determined as 825. Besides, the Activity entry with Mus musculus [8] is on record as “Non-Toxic”; with Mus musculus [9], “Non-Toxic”; in the data set on Mus musculus [10] it was “Non-Toxic”; in the data set on Mus musculus [11] it was “Non-Toxic”; with Trypanosoma cruzi [12] it was 98.5%. Moreover, the outcome in [13] and in data set [14] was Active.
